# Laboratory results taken from patent publication US11427575B2, “Antitumor compound for activating JWA gene and degrading HER2, preparation method thereof, and application thereof” (SIMCERE PHARMACEUTICAL CO., LTD., priority 2019, dated 2022).
# Read-outs that look alike come from different tables or passages of the source.
# What was measured:
# [1] = tested on: BT474 human breast cancer cells; experiment: Tumor growth in nude mice subcutaneously transplanted with BT474 cells; assay type: in vivo, BALB/c nude mice; conditions: for tumor growth (tumor volume): vs blank control; for tumor weight / tumor weight/mouse body weight ratio: P<0.05
# Protocol: BT474 human breast cancer cells in the logarithmic growth phase were suspended in ice-cold suspension buffer for a final concentration of 5×10^6/100 μL, followed by subcutaneous transplantations of the suspended cells into BALB/c nude mice. When the tumor grown up to 75-125 mm^3, the BALB/c nude mice were randomly divided into five equal groups, including a blank control group (Mock), a solvent control group (Vehicle), a 50 mg/kg JAC1 treatment group, a 100 mg/kg JAC1 treatment group, and a positive control group treated with Pacilitaxel and Trastuzumab (TH). Dose and administration: JAC1 was injected intraperitoneally into mice once daily; the dosage of Trastuzumab was 10 mg/kg injected intraperitoneally twice a week; the dosage of Pacilitaxel was 20 mg/kg injected intraperitoneally once a week. From the day of administration, mouse body weights and tumor diameters were measured every other 2 days, and the tumor volume was calculated using an equation. When the mice reached a humane endpoint at which the tumor volume increased to 2500-3000 mm^3, the research based on the mouse models was terminated and the laboratory mice were anesthetized and euthanized in a timely manner to alleviate animal suffering and perform the statistical analysis.
# HER2 protein = experiment: Western blot in HER2-positive breast cancer cells, HER2; assay type: cell-based, human; conditions: increasing concentration, 24 h
# Protocol: (§1) The cells in the logarithmic growth phase were routinely digested, and transferred into 6-well plates at the cell density of 40%-50%. The cells were incubated with different concentrations of JAC1 for 24 h, followed by an addition of 0.1 mL of Radioimmunoprecipitation Assay Butter (RIPA, containing 0.5% phenylmethylsulfonyl fluoride (PMSF)) for protein extraction. After centrifugation at 12,000×g for 15 min, the supernatant was collected, and brought to a determination of protein concentration and a boil. Protein electrophoresis was performed with 10% polyacrylamide gel. The protein was transferred into the gel wells for 40 μg protein per well, migrated at 60 V for 30 min, and 90 V for 1.5-2 h. After gel electrophoresis, the protein was transferred by wet method from gel to a PVDF membrane, and blocked with 5% skim milk at room temperature for 1-2 h. The membrane was washed with Tris-Buffered Saline and Tween 20 (TBST, containing 0.1% Tween 20) three times for 5 min each, and incubated in the corresponding primary antibody overnight at 4° C. The membrane was then washed with the TBST (containing 0.1% Tween 20) three times for 5 min each, incubated in the secondary antibody at room temperature for 1-2 h, and washed with the TBST (containing 0.1% Tween 20) eight times for 5 min each. […]
# JWA protein [2] = experiment: Laser confocal immunofluorescence in HER2-positive breast cancer cells, JWA; assay type: cell-based, human; conditions: immunofluorescence, 0, 1, 10 μM, 24 h
# Protocol: The cells were inoculated into a 35 mm glass bottom dish, treated with different concentrations (0, 1, and 10 μM) of JAC1 for 24 h, fixed with methanol for 15 min, washed three times with PBST, blocked with normal sheep serum for 1 h, and incubated in primary antibody overnight at 4° C. The cells were then washed three times with PBST, incubated in fluorescent secondary antibody and 4′,6-diamidino-2-phenylindole (DAPI), and photographed using a laser confocal scanning microscopy.
# [3] = Serum biochemical indexes in tumor-bearing nude mice; conditions: particularly 100 mg/kg, vs blank control
# Text: A model of nude mice subcutaneously transplanted with human breast cancer cells was built with reference to the method of Example 16. The laboratory mice that have been modeled were anesthetized to determine whether damage occurred to the major organs in the mouse body. Whole blood was collected from the anesthetized mice, and the serum was separated and used to detect a change in the serum biochemical indexes using an automatic biochemistry analyzer.
# SKBR3 cells = conditions: SKBR3, Transwell, 0, 1, and 10 μL of JAC1, 12 h
# Protocol: (§2) BT474 and SKBR3 cells in the logarithmic growth phase were transferred into six-well plates at the cell density of 40%-50%. After the cells adhered to the walls of the plates, the cells were respectively incubated in […] of JAC1. Spreading gel in Transwell chamber: the day before the assay, a 24-well plate and a plurality of Transwell chambers were prepared, and 1 mg/mL fibronectin (FN) mother liquor was diluted 10 times to a final concentration of 100 μg/mL. The bottom of each Transwell chamber was coated with 50 μL of FN, placed on a clean bench to air-dry for 2 h, and cultured in an incubator overnight.
# (§3) On the day of the assay, the cultured cells were digested with 0.25% trypsin and resuspended in a serum-free medium in which the number of the cells were counted and the cell density was adjusted to 3×10^5 cells/mL. 100 μL of serum-free medium containing the cells was transferred onto the upper layer of each Transwell chamber, and 600 μL of mixture containing 10% FBS and 100 ng/mL EGF medium was added to the lower layer of each Transwell chamber. After incubation in an incubator for 12 h, the Transwell chambers were taken out, fixed with 95% methanol for 20 min, washed three times with phosphate-buffered saline (PBS), stained with crystal violet dye for 30 min, and washed three times with PBS. […]
# BT474 cells = conditions: BT474, Transwell, 0, 1, and 10 μL of JAC1, 12 h
# Protocol: as §2, §3
# JWA protein [4] = conditions: 10 μM, 48 h
# Text: A HER2-positive BGC823 human gastric cancer cell line was established in which JWA gene was deleted using Crisp/cas9 technology. […] After protein extraction, western blotting technology was used to determine the expression levels of JWA and HER2 proteins in the wild-type cell line (JWA WT) and the JWA-knockout cell line (JWA KO).
# JWA protein [5] = experiment: Western blot in HER2-positive breast cancer cells, JWA; assay type: cell-based, human; conditions: increasing concentration, 24 h
# Protocol: as §1
# promoter of JWA gene = experiment: Luciferase reporter gene under control of JWA gene promoter in HBE cells (high-throughput screening); assay type: cell-based, human; conditions: for fluorescence intensity of reporter gene: 48 h
# Text: High-throughput screening (HTS) was used to identify the human bronchial epithelial (HBE) cells stably transfected with a DNA construct with a luciferase gene under control of a 2,000 bp long promoter of JWA gene.
# FIG. 1 is a sequence containing the 2000 bp promoter sequence of JWA gene that was used for a luciferase reporter gene plasmid construction.
smiles,measurement,setting,value
"COc1cccc2sc(Nc3nc4c(F)cccc4s3)nc12 [JAC1, 4-fluoro-N-(4-methoxybenzene (d)thiazole-2-group) benzene (d) thiazole-2-amine]",tumor growth (tumor volume),[1]; 50 mg/kg intraperitoneally once daily,obvious results at suppressing tumor growth
same,Tumor growth inhibition rate,[1]; 50 mg/kg ip once daily,31.22%
same,tumor weight,[1]; 50 mg/kg ip once daily,reduced
same,tumor weight/mouse body weight ratio,[1]; 50 mg/kg ip once daily,decreased
same,tumor growth (tumor volume),[1]; 100 mg/kg intraperitoneally once daily,obvious results at suppressing tumor growth
same,Tumor growth inhibition rate,[1]; 100 mg/kg ip once daily,46.21%
same,tumor weight,[1]; 100 mg/kg ip once daily,reduced
same,tumor weight/mouse body weight ratio,[1]; 100 mg/kg ip once daily,decreased
same,HER2 protein level,HER2 protein,HER2 protein level decreases
same,JWA protein level,JWA protein [2],JWA protein level increased
same,alanine transaminase (ALT),[3],significant decreases
same,aspartate transaminase (AST),[3],significant decreases
same,creatine kinase (CK),[3],significant decreases
same,creatine kinase isoenzyme (CKMB),[3],significant decreases
same,superoxide dismutase (SOD),[3],significantly increased
same,triglyceride (TG),[3],significant decreases
same,migratory ability,SKBR3 cells,effectively inhibit the migratory ability
same,migratory ability,BT474 cells,effectively inhibit the migratory ability
same,JWA expression level,JWA protein [4]; BGC823 JWA KO,no effect
same,JWA protein level,JWA protein [4]; BGC823 JWA WT,significantly increase JWA protein level
same,JWA protein level,JWA protein [5],JWA protein level increased
same,fluorescence intensity of reporter gene,promoter of JWA gene; 0.05 μg/mL,13560.00
same,fluorescence intensity of reporter gene,promoter of JWA gene; 0.10 μg/mL,16200.00
same,fluorescence intensity of reporter gene,promoter of JWA gene; 0.21 μg/mL,21975.00
same,fluorescence intensity of reporter gene,promoter of JWA gene; 0.41 μg/mL,28186.67
same,fluorescence intensity of reporter gene,promoter of JWA gene; 0.83 μg/mL,38760.00
same,fluorescence intensity of reporter gene,promoter of JWA gene; 1.65 μg/mL,54293.33
same,fluorescence intensity of reporter gene,promoter of JWA gene; 3.30 μg/mL,68080.00
same,activation of JWA gene,promoter of JWA gene; result in words,particularly significant effect on activation of JWA gene
